Consider 23 molecules from patent US10106559B2, “Substituted tetrahydrocarbazole and carbazole carboxamide compounds” (BRISTOL-MYERS SQUIBB COMPANY, priority 2013, dated 2018).

Test [1] concerns CD69 expression on B cells in human whole blood. In words: Whole Blood Assay of BCR-Stimulated CD69 Expression on B Cells. The test is classed as cell-based. Conditions: B-cell.
In a further test the target is Jak2 tyrosine kinase (Homo sapiens (Human), UniProt O60674). In words: Jak2 Tyrosine Kinase Assay. It is filed as biochemical. The conditions noted are these: for Ratio of Jak2/Btk IC50 values: selectivity: Jak2 IC50 divided by Btk IC50.
Another test has as its target human recombinant Btk (Homo sapiens (Human), UniProt Q06187). In words: Human Recombinant Btk Enzyme Assay. The test is classed as biochemical.

Each structure is given as a SMILES string.

Sequence of Jak2 tyrosine kinase (O60674 whole entry): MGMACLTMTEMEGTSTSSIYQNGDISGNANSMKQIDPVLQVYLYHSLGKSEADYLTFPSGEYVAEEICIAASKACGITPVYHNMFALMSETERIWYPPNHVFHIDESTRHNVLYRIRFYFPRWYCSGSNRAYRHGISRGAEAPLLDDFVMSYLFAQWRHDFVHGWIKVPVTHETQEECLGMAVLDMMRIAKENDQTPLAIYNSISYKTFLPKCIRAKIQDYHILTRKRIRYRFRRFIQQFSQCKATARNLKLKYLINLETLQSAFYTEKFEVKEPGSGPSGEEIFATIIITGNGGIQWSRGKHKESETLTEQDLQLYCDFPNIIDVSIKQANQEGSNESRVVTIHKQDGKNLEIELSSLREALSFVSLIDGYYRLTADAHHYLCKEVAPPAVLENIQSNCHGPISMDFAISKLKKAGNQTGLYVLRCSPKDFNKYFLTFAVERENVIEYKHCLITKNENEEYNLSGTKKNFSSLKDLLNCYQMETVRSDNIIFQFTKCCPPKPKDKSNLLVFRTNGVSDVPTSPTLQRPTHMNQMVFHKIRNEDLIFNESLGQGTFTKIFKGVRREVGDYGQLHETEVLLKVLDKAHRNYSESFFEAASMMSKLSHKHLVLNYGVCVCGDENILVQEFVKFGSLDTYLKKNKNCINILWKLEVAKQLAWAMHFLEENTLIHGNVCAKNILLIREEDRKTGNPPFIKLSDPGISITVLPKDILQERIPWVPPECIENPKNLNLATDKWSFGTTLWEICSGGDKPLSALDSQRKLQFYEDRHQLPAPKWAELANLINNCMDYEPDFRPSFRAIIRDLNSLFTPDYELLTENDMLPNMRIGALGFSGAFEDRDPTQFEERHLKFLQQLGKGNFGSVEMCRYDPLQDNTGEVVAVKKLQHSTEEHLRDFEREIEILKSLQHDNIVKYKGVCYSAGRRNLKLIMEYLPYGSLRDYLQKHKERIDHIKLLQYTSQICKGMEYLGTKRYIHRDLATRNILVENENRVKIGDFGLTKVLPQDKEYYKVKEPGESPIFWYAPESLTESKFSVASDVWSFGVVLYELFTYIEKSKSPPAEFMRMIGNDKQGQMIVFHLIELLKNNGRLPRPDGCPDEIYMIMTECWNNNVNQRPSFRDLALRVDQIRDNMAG
Sequence of human recombinant Btk (Q06187 whole entry): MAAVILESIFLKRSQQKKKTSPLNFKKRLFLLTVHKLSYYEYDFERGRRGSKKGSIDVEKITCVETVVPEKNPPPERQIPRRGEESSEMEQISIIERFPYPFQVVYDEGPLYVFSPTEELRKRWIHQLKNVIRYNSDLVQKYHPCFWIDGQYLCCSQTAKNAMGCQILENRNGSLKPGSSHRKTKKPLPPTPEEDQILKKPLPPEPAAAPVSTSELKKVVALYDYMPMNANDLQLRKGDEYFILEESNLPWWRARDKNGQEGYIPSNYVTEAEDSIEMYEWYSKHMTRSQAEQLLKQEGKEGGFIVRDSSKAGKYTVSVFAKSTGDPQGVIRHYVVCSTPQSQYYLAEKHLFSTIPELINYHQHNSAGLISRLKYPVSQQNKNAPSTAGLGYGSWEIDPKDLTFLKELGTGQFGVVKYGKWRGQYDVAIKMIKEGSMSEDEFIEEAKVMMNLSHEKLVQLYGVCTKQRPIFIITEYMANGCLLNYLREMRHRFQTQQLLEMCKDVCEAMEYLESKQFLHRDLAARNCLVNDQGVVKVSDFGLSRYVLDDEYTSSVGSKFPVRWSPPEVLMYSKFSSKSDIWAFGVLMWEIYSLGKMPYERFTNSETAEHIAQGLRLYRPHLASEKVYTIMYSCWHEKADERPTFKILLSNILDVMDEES

Molecule `[2H]C([2H])([2H])n1c(=O)n(-c2cccc(-c3c(F)cc(C(N)=O)c4[nH]c5c(c34)CC[C@H](C(C)(C)O)C5)c2C)c(=O)c2cccc(F)c21` (single isomer, unassigned) [Example 62] showed an IC50 in test [1] of 74 nM. At Jak2 tyrosine kinase, the “Ratio of Jak2/Btk IC50 values” is more than 4900.

In test [1], `Cc1c(-c2c(F)cc(C(N)=O)c3[nH]c4cc(CCO)ccc4c23)cccc1-n1c(=O)cc2c(F)cccn2c1=O` [Example 70] registered an IC50 of 66 nM. The “Ratio of Jak2/Btk IC50 values” on Jak2 tyrosine kinase is 930.

Take `Cc1c(-c2c(C#N)cc(C(N)=O)c3[nH]c4cc(C(C)(C)O)ccc4c23)cccc1-n1c(=O)cc2c(Cl)cccn2c1=O` (single isomer, unassigned) [Example 72]: the figures for the IC50 (in test [1]; against Jak2 tyrosine kinase; on human recombinant Btk) were 200 nM, 770 nM and 0.49 nM, respectively. At Jak2 tyrosine kinase, the “Ratio of Jak2/Btk IC50 values” worked out at 1600.

Take `Cc1c(-c2c(Cl)cc(C(N)=O)c3[nH]c4cc(C(C)(C)O)ccc4c23)cccc1-n1c(=O)[nH]c2c(F)cc(F)cc2c1=O` (single isomer, unassigned) [Example 48]: the results for the IC50 (in test [1]; against Jak2 tyrosine kinase; on human recombinant Btk) were 25 nM, 1100 nM and 0.33 nM, respectively. The “Ratio of Jak2/Btk IC50 values” on Jak2 tyrosine kinase is listed as 3300.

On to `Cc1cc(C(N)=O)c2[nH]c3cc(C(C)(C)O)ccc3c2c1-c1cccc(-n2c(=O)[nH]c3c(F)cccc3c2=O)c1C` (single isomer, unassigned) [Example 66], for which the IC50 was 89 nM in test [1] and 0.34 nM on human recombinant Btk.

Take `Cc1c(-c2c(F)cc(C(N)=O)c3[nH]c4cc(C(C)(C)O)ccc4c23)cccc1-n1c(=O)[nH]c2c(F)cc(F)cc2c1=O` (single isomer, unassigned) [Example 50]: the concentration for half-maximal inhibition (IC50) was 1200 nM on Jak2 tyrosine kinase and 0.32 nM at human recombinant Btk. Besides, on Jak2 tyrosine kinase, the “Ratio of Jak2/Btk IC50 values” is listed as 3800.

`COc1cccn2c(=O)n(-c3cccc(-c4c(Cl)cc(C(N)=O)c5[nH]c6cc(C(C)(C)O)ccc6c45)c3C)c(=O)cc12` [Example 37, 3-Chloro-7-(2-hydroxypropan-2-yl)-4-(3-(5-methoxy-1,3-dioxo-1H-pyrido[1,2-c]pyrimidin-2(3H)-yl)-2-methylphenyl)-9H-carbazole-1-carboxamide] displayed an IC50 in test [1] of 200 nM. At Jak2 tyrosine kinase, the “Ratio of Jak2/Btk IC50 values” worked out at 690.

In test [1], `COc1cccc2c(=O)n(-c3cccc(-c4c(Cl)cc(C(N)=O)c5[nH]c6cc(C(C)(C)O)ccc6c45)c3C)c(=O)n(C)c12` [Example 7, 3-Chloro-7-(2-hydroxypropan-2-yl)-4-(R)-(3-(8-methoxy-1-methyl-2,4-dioxo-1,2-dihydroquinazolin-3(4H)-yl)-2-methylphenyl)-9H-carbazole-1-carboxamide] returned an IC50 of 130 nM.

For `Cc1c(-c2c(Cl)cc(C(N)=O)c3[nH]c4cc(C(C)(C)O)ccc4c23)cccc1-n1c(=O)c2ccccc2n(C)c1=O` [Example 3, 3-Chloro-7-(2-hydroxypropan-2-yl)-4-(R)-(2-methyl-3-(1-methyl-2,4-dioxo-1,2-dihydroquinazolin-3(4H)-yl)phenyl)-9H-carbazole-1-carboxamide], the concentration for half-maximal inhibition (IC50) in test [1] is 130 nM.

For the molecule `Cc1c(-c2c(F)cc(C(N)=O)c3[nH]c4c(c23)CC[C@H](C(C)(C)O)C4)cccc1-n1c(=O)[nH]c2c(F)cccc2c1=O` (single isomer, unassigned) [Example 59], the IC50 in test [1] is 260 nM.

For `Cc1c(-c2c(F)cc(C(N)=O)c3[nH]c4c(c23)CC[C@H](C(C)(C)O)C4)cccc1-n1c(=O)[nH]c2c(Cl)cccc2c1=O` (single isomer, unassigned) [Example 63], in test [1], the IC50 was 190 nM. Also, on Jak2 tyrosine kinase, the “Ratio of Jak2/Btk IC50 values” is listed as 24000.

For `Cc1c(-c2c(F)cc(C(N)=O)c3[nH]c4c(c23)CC[C@H](C(C)(C)O)C4)cccc1-n1c(=O)cc2c(Cl)cccn2c1=O` (single isomer, unassigned) [Example 64], the IC50 in test [1] is 88 nM.

Turning to `Cc1c(-c2c(F)cc(C(N)=O)c3[nH]c4cc(C(C)(C)O)ccc4c23)cccc1-n1c(=O)[nH]c2c(Cl)cccc2c1=O` (single isomer, unassigned) [Example 54], on Jak2 tyrosine kinase, the half-inhibitory concentration (IC50) came to 1200 nM and the “Ratio of Jak2/Btk IC50 values” is 3400. Further, the 50% inhibitory concentration (IC50) on human recombinant Btk was 0.35 nM.

`Cc1c(-c2c(F)cc(C(N)=O)c3[nH]c4c(c23)CC[C@H](C(C)(C)O)C4)cccc1-n1c(=O)cc2c(F)cccn2c1=O` (single isomer, unassigned) [Example 68] came in with an IC50 in test [1] of 75 nM. Further, the “Ratio of Jak2/Btk IC50 values” on Jak2 tyrosine kinase is on record as 630.

Regarding `Cc1cc(C(N)=O)c2[nH]c3cc(C(C)(C)O)ccc3c2c1-c1cccc(-n2c(=O)cc3c(Cl)cccn3c2=O)c1C` [Example 71], the values for the IC50 on Jak2 tyrosine kinase and at human recombinant Btk were 800 nM and 0.41 nM, respectively.

For the molecule `Cc1c(-c2c(F)cc(C(N)=O)c3[nH]c4cc(C(C)(C)O)ccc4c23)cccc1-n1c(=O)[nH]c2cc(F)ccc2c1=O` (single isomer, unassigned) [Example 51], the IC50 is 190 nM in test [1], more than 2000 nM on Jak2 tyrosine kinase and 0.3 nM on human recombinant Btk. The “Ratio of Jak2/Btk IC50 values” on Jak2 tyrosine kinase was more than 6700.

Regarding `Cc1c(-c2c(Cl)cc(C(N)=O)c3[nH]c4c(c23)CC[C@H](C(C)(C)O)C4)cccc1-n1c(=O)[nH]c2c(F)cc(F)cc2c1=O` (single isomer, unassigned) [Example 57], the IC50 in test [1] was determined as 54 nM. Moreover, the “Ratio of Jak2/Btk IC50 values” on Jak2 tyrosine kinase amounted to 1100.

As for `Cc1c(-c2c(F)cc(C(N)=O)c3[nH]c4cc(C(C)(C)O)ccc4c23)cccc1-n1c(=O)c2cccc(F)c2n(C)c1=O` (single isomer, unassigned) [Example 74], the values for the IC50 (in test [1]; against Jak2 tyrosine kinase) were 180 nM and 4300 nM, respectively.

In test [1], `[2H]C([2H])([2H])n1c(=O)n(-c2cccc(-c3c(F)cc(C(N)=O)c4[nH]c5cc(C(C)(C)O)ccc5c34)c2C)c(=O)c2cccc(F)c21` (single isomer, unassigned) [Example 52] displayed an IC50 of 25 nM.

Regarding `Cc1c(-c2c(F)cc(C(N)=O)c3[nH]c4cc(C(C)(C)O)ccc4c23)cccc1-n1c(=O)[nH]c2c(F)cc(F)cc2c1=O` [Example 49], the IC50 in test [1] is 17 nM; against Jak2 tyrosine kinase, more than 2000 nM; on human recombinant Btk it was 0.77 nM. Moreover, on Jak2 tyrosine kinase, the “Ratio of Jak2/Btk IC50 values” is recorded as more than 2600.

Take `Cc1c(-c2c(F)cc(C(N)=O)c3[nH]c4cc(C(C)(C)O)ccc4c23)cccc1-n1c(=O)[nH]c2c(Cl)cccc2c1=O` (single isomer, unassigned) [Example 53]: the IC50 came out at 2200 nM against Jak2 tyrosine kinase and 1.1 nM on human recombinant Btk. In addition, the “Ratio of Jak2/Btk IC50 values” on Jak2 tyrosine kinase was 2000.

`CC(C)(O)c1ccc2c(c1)[nH]c1c(C(N)=O)cc(Cl)c(-c3cccc(-n4c(=O)[nH]c5c(F)cccc5c4=O)c3Cl)c12` [Example 47, 3-Chloro-4-(R)-(2-chloro-3-(8-fluoro-2,4-dioxo-1,2-dihydroquinazolin-3(4H)-yl)phenyl)-7-(2-hydroxypropan-2-yl)-9H-carbazole-1-carboxamide] displayed a half-inhibitory concentration (IC50) in test [1] of 27 nM.

`Cn1c(=O)n(-c2cccc(-c3c(F)cc(C(N)=O)c4[nH]c5cc(C(C)(C)O)ccc5c34)c2Cl)c(=O)c2cccc(F)c21` [Example 46, 4-(2-Chloro-3-(8-fluoro-1-methyl-2,4-dioxo-1,2-dihydroquinazolin-3(4H)-yl)phenyl)-3-fluoro-7-(2-hydroxypropan-2-yl)-9H-carbazole-1-carboxamide] returned an IC50 in test [1] of 88 nM.

Broadly, the IC50 is the concentration that inhibits the measured activity by half.
